In patent US8362031B2, “Lonidamine analogues and treatment of polycystic kidney disease” (University of Kansas, priority 2004, dated 2013):
Entries after “also recorded” stand apart in the source; their conditions may differ.

Columns and labels:
[1] = test system: Male Long Evans rats; assay: In vivo antispermatogenic testing in Long Evans rats
[2] = test system: ADPKD cells; assay: Mitotic index of ADPKD cells; format: cell-based, human; details: untreated controls 4.1%
Experimental: For the […] shown in FIG. 10C, 5×10^3 ADPKD cells were plated in a 4-well chamber slide. After 24 hours, medium was changed to include 5% FBS. Cells were treated with increasing concentrations of GMZ for 16 hours, fixed with 4% paraformaldehyde and permeabilized with 0.2% Triton-X100. Cells were mounted with DAPI-containing mounting medium and observed by fluorescence microscopy. Eight to ten separate fields were examined at 10× magnification and the number of mitotic figures (nuclei) were counted and expressed as a percentage of the total number of nuclei per field. Statistical analysis was done to compare the GMZ-treated cells to untreated cells at each time point using One-way ANOVA and the Tukey HSD test for pair-wise comparisons.

[3] = test system: CFTR-mediated chloride transport; assay: Forskolin-induced short-circuit current in ADPKD cell monolayers; format: cell-based, human
Experimental: To determine if the ability of GMZ to inhibit cAMP-stimulated tubule expansion was due to inhibition of CFTR-mediated chloride transport, forskolin-induced short-circuit current was measured with cyst-lining epithelial cells derived from two human ADPKD (autosomal dominant PKD) kidneys. FSK is an adenylyl cyclase agonist, which increases the levels of intracellular cAMP. The cAMP then opens the CFTR chloride channel. […] The bars in FIG. 12G show the results for the three treatments. 1 microM gamendazole applied to the apical side of the cell monolayer was effective in inhibiting greater than 40 percent of the forskolin-stimulated transepithelial chloride transport.

[4] = test system: ADPKD cells; assay: Phalloidin staining of the actin cytoskeleton; format: cell-based, human; details: increasing concentrations
Experimental: To determine if gamendazole treatment alters actin cytoskeleton dynamics, ADPKD cells were stained with phalloidin and examined by fluorescence microscopy. […] Briefly, ADPKD cells or M-1 cortical collecting duct cells were plated in a 4-well chamber slide in 5% FBS-containing medium. After 24 hours, the cells were treated with increasing concentrations of GMZ. Cells were fixed using 4% paraformaldehyde and permeabilized with 0.2% Triton-X 100. Cells were then incubated for 20 min with TRITC-conjugated phalloidin, washed with PBS and mounted with DAPI-containing mounting medium. Images were captured at 10× (FIG. 13A) or 60× (FIG. 13B), using the same exposure settings for treated and untreated cells. […] Blue (internal staining) indicates DAPI-stained nuclei.

[5] = test system: ADPKD cells; assay: Wound-healing scratch assay (cell migration); format: cell-based, human
Experimental: Gamendazole (GMZ) was tested to determine if it inhibits cell migration. Briefly, ADPKD cells were plated on a 12-well cell culture plate in 5% FBS-containing medium and allowed to form a confluent monolayer. The monolayer was wounded using a P-200 pipette tip and the medium changed to include increasing concentrations of gamendazole. Images of three different fields per well were captured at 10× magnification immediately after wounding and at 4, 8 and 24 hours post-wounding. GMZ was tested at 0, 10, 50, and 100 uM. Area of the wound was measured at each time point using NIH Image J program. Percentage of wound closure was calculated by subtracting the area of the wound at any given time point from the 0 h wound area expressed as a percentage of the 0 h wound area. Statistical analysis was done to compare the GMZ-treated cells to untreated cells at each time point using One-way ANOVA and the Tukey HSD test for pair-wise comparisons.

| SMILES | Mortality (25 mg/kg) ([1]; 25 mg/kg single i.p. injection, […]) | Response 25 mg/kg ([1]; 25 mg/kg single i.p. injection, animals responding out of animals surviving, five days following injection) | Mortality (200 mg/kg) ([1]; 200 mg/kg single i.p. injection, […]) | Response 200 mg/kg ([1]; 200 mg/kg single i.p. injection, animals responding out of animals surviving, five days following injection) | mitotic index ([2]; 50 μM for 16 h) [%] | mitotic index ([2]; 100 μM for 16 h, p<0.01) [%] | inhibition at 1 µM ([3]; Homo sapiens, 1 microM applied to the apical side, 10 microM forskolin, read-out: inhibition of the forskolin-stimulated transepithelial chloride transport) [%] | forskolin-induced Cl-secretion (short-circuit current) ([3]; human ADPKD cells, in the presence of benzamil) | Concentration needed to inhibit CFTR-mediated chloride channel activity, compared with lonidamine ([3]; human cyst epithelial cells (ADPKD cells)) | Cell morphology, actin cytoskeleton [4] | cell migration (percentage of wound closure) ([5]; 10, 50 and 100 uM, 4, 8 and 24 hours post-wounding) | wound closure ([5]; even at low concentration (10 uM)) |
| --- | --- | --- | --- | --- | --- | --- | --- | --- | --- | --- | --- | --- |
| O=C(O)/C=C/c1nn(Cc2ccc(Cl)cc2Cl)c2cc(C(F)(F)F)ccc12 [RC-MC-110, trans 3-[1-(2,4-dichlorobenzyl)-6-trifluoromethyl-1H-indazol-3-yl]-acrylic acid] | 0/5 | 5/5 | 3/5 | 2/2 | – | – | – | – | – | – | – | – |
| O=C(O)CCc1nn(Cc2ccc(Cl)cc2Cl)c2cc(C(F)(F)F)ccc12 [GMZ, 3-[1-(2,4-dichlorobenzyl)-6-trifluoromethyl-1H-indazol-3-yl]-propionic acid] | – | – | – | – | 2.6 | 1.7 | > 40 | almost completely block | at much lower concentration; also recorded: effective at lower doses than was Lonidamine itself | smaller, without leading edges and with less filamentous actin | significant inhibition of cell migration at all concentrations of GMZ tested and at all time points | unable to accomplish wound closure |
